# Results published in ChEMBL document CHEMBL3885861, “Open TG-GATES”.
# Organism: Rattus norvegicus
# Assay: Open TG-GATES - Regimen: Single
# Format: toxicity, organism-based, Sprague-Dawley
# Set-up: regimen Single, gender Male, age 6 weeks
# Settings: in vivo, po, 300 mg/kg, route gavage, dose level High; for APTT / Bas / Eos / Fbg / Hb / Ht / Lym / MCH / MCHC / MCV / Mono / Neu / PT / Plat / RBC / Ret / WBC: tissue Blood; for KIDNEY_L / KIDNEY_R / KIDNEY_TOTAL: tissue Kidney; for LIVER: tissue Liver; for A/G / ALP / ALT / AST / BUN / CRE / Ca / Cl / DBIL / GLC / IP / K / LDH / Na / PL / RALB / TBIL / TC / TG / TP / gamma-GTP: tissue Plasma
smiles,measurement,setting,value
CCOC(=O)C(C)(C)Oc1ccc(Cl)cc1 [CLOFIBRATE],TERMINAL_BW,3 h,225.9 g
same,APTT,3 h,19.5 s
same,Bas,3 h,0%
same,Eos,3 h,1%
same,Fbg,3 h,231.2 mg/dL
same,Hb,3 h,13.5 g/dL
same,Ht,3 h,39.3%
same,Lym,3 h,78%
same,MCH,3 h,21.4 pg
same,MCHC,3 h,34.2%
same,MCV,3 h,62.5 fL
same,Mono,3 h,3%
same,Neu,3 h,17.2%
same,PT,3 h,12.5 s
same,Plat,3 h,127.2 x10_4/uL
same,RBC,3 h,629.6 x10_4/ul
same,Ret,3 h,7.9%
same,WBC,3 h,103.9 x10_2/uL
same,KIDNEY_L,3 h,1 g
same,KIDNEY_R,3 h,1 g
same,KIDNEY_TOTAL,3 h,2 g
same,LIVER,3 h,9.8 g
same,A/G,3 h,1.6
same,ALP,3 h,991.6 IU/L
same,ALT,3 h,41.8 IU/L
same,AST,3 h,73.2 IU/L
same,BUN,3 h,10.4 mg/dL
same,CRE,3 h,0.4 mg/dL
same,Ca,3 h,11 mg/dL
same,Cl,3 h,102.4 meq/L
same,DBIL,3 h,0.1 mg/dL
same,GLC,3 h,190 mg/dL
same,IP,3 h,9.4 mg/dL
same,K,3 h,3.6 meq/L
same,LDH,3 h,260.6 IU/L
same,Na,3 h,140.4 meq/L
same,PL,3 h,149.6 mg/dL
same,RALB,3 h,3.5 g/dL
same,TBIL,3 h,0.2 mg/dL
same,TC,3 h,73 mg/dL
same,TG,3 h,76.2 mg/dL
same,TP,3 h,5.6 g/dL
same,gamma-GTP,3 h,0.6 IU/L
same,TERMINAL_BW,6 h,227.7 g
same,APTT,6 h,18.2 s
same,Bas,6 h,0%
same,Eos,6 h,1%
same,Fbg,6 h,240.8 mg/dL
same,Hb,6 h,13.4 g/dL
same,Ht,6 h,38.8%
same,Lym,6 h,76.4%
same,MCH,6 h,21.1 pg
same,MCHC,6 h,34.5%
same,MCV,6 h,61.3 fL
same,Mono,6 h,3.2%
same,Neu,6 h,18.4%
same,PT,6 h,12.7 s
same,Plat,6 h,134.1 x10_4/uL
same,RBC,6 h,633.8 x10_4/ul
same,Ret,6 h,7.4%
same,WBC,6 h,83.7 x10_2/uL
same,KIDNEY_L,6 h,1 g
same,KIDNEY_R,6 h,1 g
same,KIDNEY_TOTAL,6 h,2 g
same,LIVER,6 h,9.5 g
same,A/G,6 h,1.6
same,ALP,6 h,1008 IU/L
same,ALT,6 h,35.8 IU/L
same,AST,6 h,74.4 IU/L
same,BUN,6 h,10.2 mg/dL
same,CRE,6 h,0.4 mg/dL
same,Ca,6 h,10.9 mg/dL
same,Cl,6 h,102.8 meq/L
same,DBIL,6 h,0.09 mg/dL
same,GLC,6 h,195.6 mg/dL
same,IP,6 h,9.5 mg/dL
same,K,6 h,4 meq/L
same,LDH,6 h,218.8 IU/L
same,Na,6 h,140.4 meq/L
same,PL,6 h,135 mg/dL
same,RALB,6 h,3.5 g/dL
same,TBIL,6 h,0.2 mg/dL
same,TC,6 h,71 mg/dL
same,TG,6 h,96.2 mg/dL
same,TP,6 h,5.7 g/dL
same,gamma-GTP,6 h,1.2 IU/L
same,TERMINAL_BW,9 h,229.4 g
same,APTT,9 h,18 s
same,Bas,9 h,0%
same,Eos,9 h,1%
same,Fbg,9 h,235.6 mg/dL
same,Hb,9 h,13.1 g/dL
same,Ht,9 h,38.1%
same,Lym,9 h,72.8%
same,MCH,9 h,21 pg
same,MCHC,9 h,34.5%
same,MCV,9 h,61 fL
same,Mono,9 h,2.8%
same,Neu,9 h,22.8%
same,PT,9 h,12.9 s
same,Plat,9 h,140.4 x10_4/uL
same,RBC,9 h,625.6 x10_4/ul
same,Ret,9 h,7.1%
same,WBC,9 h,69.9 x10_2/uL
same,KIDNEY_L,9 h,1 g
same,KIDNEY_R,9 h,1 g
same,KIDNEY_TOTAL,9 h,2 g
same,LIVER,9 h,9.4 g
same,A/G,9 h,1.5
same,ALP,9 h,1054.2 IU/L
same,ALT,9 h,33 IU/L
same,AST,9 h,70.4 IU/L
same,BUN,9 h,10.8 mg/dL
same,CRE,9 h,0.4 mg/dL
same,Ca,9 h,10.5 mg/dL
same,Cl,9 h,102.4 meq/L
same,DBIL,9 h,0.09 mg/dL
same,GLC,9 h,201 mg/dL
same,IP,9 h,10.3 mg/dL
same,K,9 h,3.7 meq/L
same,LDH,9 h,203.6 IU/L
same,Na,9 h,140.4 meq/L
same,PL,9 h,116 mg/dL
same,RALB,9 h,3.3 g/dL
same,TBIL,9 h,0.1 mg/dL
same,TC,9 h,53.8 mg/dL
same,TG,9 h,81.8 mg/dL
same,TP,9 h,5.5 g/dL
same,gamma-GTP,9 h,1 IU/L
same,TERMINAL_BW,24 h,236.8 g
same,APTT,24 h,19.3 s
same,Bas,24 h,0%
same,Eos,24 h,0.8%
same,Fbg,24 h,218.2 mg/dL
same,Hb,24 h,13.5 g/dL
same,Ht,24 h,38.6%
same,Lym,24 h,77.2%
same,MCH,24 h,21.2 pg
same,MCHC,24 h,34.9%
same,MCV,24 h,60.7 fL
same,Mono,24 h,4%
same,Neu,24 h,17.6%
same,PT,24 h,13.3 s
same,Plat,24 h,127.2 x10_4/uL
same,RBC,24 h,636.8 x10_4/ul
same,Ret,24 h,6.4%
same,WBC,24 h,102.9 x10_2/uL
same,KIDNEY_L,24 h,1 g
same,KIDNEY_R,24 h,1.1 g
same,KIDNEY_TOTAL,24 h,2.1 g
same,LIVER,24 h,12.3 g
same,A/G,24 h,1.7
same,ALP,24 h,1007.8 IU/L
same,ALT,24 h,38 IU/L
same,AST,24 h,79 IU/L
same,BUN,24 h,15.4 mg/dL
same,CRE,24 h,0.4 mg/dL
same,Ca,24 h,10.6 mg/dL
same,Cl,24 h,100.4 meq/L
same,DBIL,24 h,0.086 mg/dL
same,GLC,24 h,201.2 mg/dL
same,IP,24 h,7.5 mg/dL
same,K,24 h,3.8 meq/L
same,LDH,24 h,223.4 IU/L
same,Na,24 h,140 meq/L
same,PL,24 h,104.8 mg/dL
same,RALB,24 h,3.5 g/dL
same,TBIL,24 h,0.1 mg/dL
same,TC,24 h,43.6 mg/dL
same,TG,24 h,103.8 mg/dL
same,TP,24 h,5.5 g/dL
same,gamma-GTP,24 h,1.4 IU/L
